Assay results reported in patent US11090319B2, “Therapeutic uses of pharmaceutical compositions comprising cyclic boronic acid ester derivatives” (Melinta Subsidiary Corp., priority 2010, dated 2021).
Read-outs that look alike come from different tables or passages of the source.

How the values were obtained:
[1] = molecular target: various β-lactamases (bacterial lysates) (Pseudomonas aeruginosa, UniProt P14489); assay: biochemical; type: biochemical; settings: AZT IC50 KP1007 OXA-10
[2] = molecular target: various β-lactamases (bacterial lysates) (Klebsiella pneumoniae, UniProt Q9F663); assay: biochemical; type: biochemical; settings: aztreonam cleavage
Sequence of various β-lactamases (bacterial lysates) (Klebsiella pneumoniae, UniProt Q9F663) (Q9F663 whole entry, looked up): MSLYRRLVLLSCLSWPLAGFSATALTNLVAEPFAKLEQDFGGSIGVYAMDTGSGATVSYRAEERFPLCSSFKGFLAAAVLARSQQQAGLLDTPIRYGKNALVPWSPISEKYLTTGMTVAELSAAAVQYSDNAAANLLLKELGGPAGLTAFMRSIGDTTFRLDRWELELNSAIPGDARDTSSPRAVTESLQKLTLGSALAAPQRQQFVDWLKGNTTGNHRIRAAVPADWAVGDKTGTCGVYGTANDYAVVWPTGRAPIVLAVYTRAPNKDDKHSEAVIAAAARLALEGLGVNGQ

[3] = molecular target: various β-lactamases (bacterial lysates) (Escherichia coli, UniProt A0A649V088); assay: biochemical; type: biochemical; settings: read-out: AZT IC50 KP1005 CTX-M-14
Sequence of various β-lactamases (bacterial lysates) (Escherichia coli, UniProt A0A649V088) (A0A649V088 29-291): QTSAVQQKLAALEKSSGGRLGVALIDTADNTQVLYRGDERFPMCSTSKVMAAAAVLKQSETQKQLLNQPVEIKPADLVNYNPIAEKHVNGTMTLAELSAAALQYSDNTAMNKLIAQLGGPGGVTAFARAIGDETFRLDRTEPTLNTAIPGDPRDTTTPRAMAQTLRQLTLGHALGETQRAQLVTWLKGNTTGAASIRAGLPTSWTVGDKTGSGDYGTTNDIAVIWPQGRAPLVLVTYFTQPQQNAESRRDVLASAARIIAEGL

[4] = molecular target: various β-lactamases (bacterial lysates) (Salmonella typhimurium, UniProt P0A1V8); assay: biochemical; type: biochemical; settings: AZT IC50 KPX1001 OXA-2
Sequence of various β-lactamases (bacterial lysates) (Salmonella typhimurium, UniProt P0A1V8) (P0A1V8 22-275): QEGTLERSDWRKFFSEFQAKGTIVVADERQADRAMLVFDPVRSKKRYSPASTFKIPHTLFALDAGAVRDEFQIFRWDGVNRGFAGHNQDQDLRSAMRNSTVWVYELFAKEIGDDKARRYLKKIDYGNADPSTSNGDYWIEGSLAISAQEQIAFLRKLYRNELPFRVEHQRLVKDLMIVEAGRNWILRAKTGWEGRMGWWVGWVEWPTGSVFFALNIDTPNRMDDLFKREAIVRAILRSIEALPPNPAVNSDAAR

[5] = molecular target: various β-lactamases (bacterial lysates) (Escherichia coli, UniProt A0A5R8T042); assay: biochemical; type: biochemical; settings: read-out: AZT IC50 KP1009 CTX-M-15
Sequence of various β-lactamases (bacterial lysates) (Escherichia coli, UniProt A0A5R8T042) (A0A5R8T042 29-291): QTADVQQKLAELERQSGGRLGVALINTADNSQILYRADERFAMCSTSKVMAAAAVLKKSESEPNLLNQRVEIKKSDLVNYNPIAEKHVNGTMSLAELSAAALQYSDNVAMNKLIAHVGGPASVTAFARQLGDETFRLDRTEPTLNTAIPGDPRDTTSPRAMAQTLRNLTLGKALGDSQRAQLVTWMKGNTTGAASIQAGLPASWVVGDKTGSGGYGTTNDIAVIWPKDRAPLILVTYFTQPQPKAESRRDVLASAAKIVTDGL

[6] = molecular target: various β-lactamases (bacterial lysates) (Klebsiella pneumoniae, UniProt Q9F663, H272Y); assay: biochemical; type: biochemical
Sequence of various β-lactamases (bacterial lysates) (Klebsiella pneumoniae, UniProt Q9F663, H272Y) (Q9F663 whole entry H272Y, looked up): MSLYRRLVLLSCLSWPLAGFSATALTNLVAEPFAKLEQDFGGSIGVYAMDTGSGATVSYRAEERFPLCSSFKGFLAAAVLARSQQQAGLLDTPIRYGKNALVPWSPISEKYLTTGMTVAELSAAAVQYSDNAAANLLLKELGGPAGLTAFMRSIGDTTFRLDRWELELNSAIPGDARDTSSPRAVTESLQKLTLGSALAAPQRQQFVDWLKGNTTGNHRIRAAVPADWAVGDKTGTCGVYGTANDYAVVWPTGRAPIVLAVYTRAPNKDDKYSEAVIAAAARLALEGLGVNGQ

[7] = molecular target: various β-lactamases (bacterial lysates) (Escherichia coli, UniProt Q53TY8); assay: Inhibition of nitrocefin cleavage by bacterial lysates, Table 11; type: biochemical; settings: lysate EC1010 pAmpC (CMY-6), read-out: NCF IC50 EC1010 pAmpC (CMY-6)
Sequence of various β-lactamases (bacterial lysates) (Escherichia coli, UniProt Q53TY8) (Q53TY8 entry or part of it): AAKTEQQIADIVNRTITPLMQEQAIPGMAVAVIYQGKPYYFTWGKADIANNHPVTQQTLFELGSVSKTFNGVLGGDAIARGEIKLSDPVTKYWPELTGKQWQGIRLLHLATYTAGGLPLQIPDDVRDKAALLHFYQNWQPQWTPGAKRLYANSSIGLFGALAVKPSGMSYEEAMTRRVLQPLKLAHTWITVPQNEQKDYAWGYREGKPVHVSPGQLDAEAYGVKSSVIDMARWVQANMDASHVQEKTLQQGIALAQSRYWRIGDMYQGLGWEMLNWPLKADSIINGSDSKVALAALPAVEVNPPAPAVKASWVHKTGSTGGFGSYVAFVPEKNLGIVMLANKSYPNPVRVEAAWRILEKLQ

[8] = test system: strains expressing class A ESBLs; type: cell-based
Description: Selected β-lactamase inhibitors were also tested for their ability to potentiate the monobactam tigemonam.

[9] = lysate KP1004 KPC-2, read-out: AZT IC50 KP1004 KPC-2 (converted)
[10] = lysate KP1008 KPC-2, read-out: AZT IC50 KP1008 KPC-2

Sequence of various β-lactamases (bacterial lysates) (Pseudomonas aeruginosa, UniProt P14489) (P14489 20-266): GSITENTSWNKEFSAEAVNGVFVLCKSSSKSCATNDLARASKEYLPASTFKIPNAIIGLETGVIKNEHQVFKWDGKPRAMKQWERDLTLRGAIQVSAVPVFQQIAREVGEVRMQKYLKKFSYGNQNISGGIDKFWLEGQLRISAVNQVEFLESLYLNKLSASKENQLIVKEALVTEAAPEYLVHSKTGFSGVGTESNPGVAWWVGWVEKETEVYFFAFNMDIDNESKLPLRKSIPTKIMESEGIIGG

Structure (SMILES) | IC50 [1] [µM] | IC50 [2, 9] [µM] | IC50 [2, 10] [µM] | IC50 [3] [µM] | IC50 [4] [µM] | IC50 [5] [µM] | IC50 [6] [µM] | IC50 [7] [µM] | MPC4 CTX-M-14 KP1005 [8] | MPC4 CTX-M-15 KP1009 [8] | MPC4 SHV-5 ec308 [8] | MPC4 SHV-12 KP1010 [8] | MPC4 SHV-18 KP1012 [8] | MPC4 TEM-10 EC1009 [8] | MPC4 TEM-10 ec302 [8] | MPC4 TEM-26 ec304 [8]
CC(C)(O/N=C(\C(=O)N[C@H]1CC[C@@H](CC(=O)O)OB1O)c1csc(N)n1)C(=O)O [Compound 36, 2-((Z)-1-(2-aminothiazol-4-yl)-2-((3R,6S)-6-(carboxymethyl)-2-hydroxy-1,2-oxaborinan-3-ylamino)-2-oxoethylideneaminooxy)-2-methylpropanoic acid] | > 4.67 | 1.17 to 4.67 | 1.17 to 4.67 | < 1.17 | > 4.67 | < 1.17 | < 1.17 | > 4.67 | – | – | – | – | – | – | – | –
Nc1nc(CC(=O)N[C@H]2CC[C@@H](CC(=O)O)OB2O)cs1 [Compound 39, 2-((3R,6S)-3-(2-(2-aminothiazol-4-yl)acetamido)-2-hydroxy-1,2-oxaborinan-6-yl)acetic acid] | > 6.39 | < 1.6 | 1.6 to 6.39 | 1.6 to 6.39 | 1.6 to 6.39 | 1.6 to 6.39 | < 1.6 | > 6.39 | – | – | – | – | – | – | – | –
CO/N=C(\C(=O)N[C@H]1CC[C@@H](CC(=O)O)OB1O)c1csc(N)n1 [Compound 40, 2-((3R,6S)-3-((Z)-2-(2-aminothiazol-4-yl)-2-(methoxyimino)acetamido)-2-hydroxy-1,2-oxaborinan-6-yl)acetic acid] | 1.4 to 5.62 | 1.4 to 5.62 | > 5.62 | < 1.4 | < 1.4 | < 1.4 | 1.4 to 5.62 | 1.4 to 5.62 | – | – | – | – | – | – | – | –
NC1(CC(=O)N[C@H]2CC[C@@H](CC(=O)O)OB2O)CCCCC1 [Compound 51, 2-((3R,6S)-3-(2-(1-aminocyclohexyl)acetamido)-2-hydroxy-1,2-oxaborinan-6-yl)acetic acid] | > 6.41 | < 1.6 | < 1.6 | > 6.41 | 1.6 to 6.41 | > 6.41 | < 1.6 | 1.6 to 6.41 | – | – | – | – | – | – | – | –
O=C(O)C[C@@H]1CC[C@H](NC(=O)Cn2ccnc2-c2ccccc2)B(O)O1 [Compound 54, 2-((3R,6S)-2-hydroxy-3-(2-(2-phenyl-1H-imidazol-1-yl)acetamido)-1,2-oxaborinan-6-yl)acetic acid] | > 5.6 | < 1.4 | < 1.4 | < 1.4 | 1.4 to 5.6 | > 5.6 | < 1.4 | 1.4 to 5.6 | – | – | – | – | – | – | – | –
O=C(O)CC1CCC[C@H](NC(=O)Cc2cccs2)B(O)O1 (stereo partly drawn) [Compound 63, 2-((3R)-2-hydroxy-3-(2-(thiophen-2-yl)acetamido)-1,2-oxaborepan-7-yl)acetic acid] | > 6.43 | 1.61 to 6.43 | 1.61 to 6.43 | 1.61 to 6.43 | 1.61 to 6.43 | 1.61 to 6.43 | 1.61 to 6.43 | – | Z (key: X: MPC@4 of less than 2 μg/mL; Y: MPC@4 of 2 μg/mL to 10 μg/mL; Z: MPC@4 of greater than 10 μg/mL) | Y (key: X: MPC@4 of less than 2 μg/mL; Y: MPC@4 of 2 μg/mL to 10 μg/mL; Z: MPC@4 of greater than 10 μg/mL) | Z (key: X: MPC@4 of less than 2 μg/mL; Y: MPC@4 of 2 μg/mL to 10 μg/mL; Z: MPC@4 of greater than 10 μg/mL) | Y (key: X: MPC@4 of less than 2 μg/mL; Y: MPC@4 of 2 μg/mL to 10 μg/mL; Z: MPC@4 of greater than 10 μg/mL) | Y (key: X: MPC@4 of less than 2 μg/mL; Y: MPC@4 of 2 μg/mL to 10 μg/mL; Z: MPC@4 of greater than 10 μg/mL) | Z (key: X: MPC@4 of less than 2 μg/mL; Y: MPC@4 of 2 μg/mL to 10 μg/mL; Z: MPC@4 of greater than 10 μg/mL) | Z (key: X: MPC@4 of less than 2 μg/mL; Y: MPC@4 of 2 μg/mL to 10 μg/mL; Z: MPC@4 of greater than 10 μg/mL) | Z (key: X: MPC@4 of less than 2 μg/mL; Y: MPC@4 of 2 μg/mL to 10 μg/mL; Z: MPC@4 of greater than 10 μg/mL)
